Data reported in EPA's ToxRefDB 2.

How the values were obtained:
mouse [1] = settings: Sub-acute repeat dose toxicity; b6c3f1; Oral; Gavage/Intubation; dose end: 14 day; group: systemic; systemic / in life observation / mortality / mortality
mouse [2] = settings: Carcinogenicity; b6c3f1; Oral; Gavage/Intubation; dose end: 103 week; group: systemic; systemic / pathology microscopic / stomach / hyperplasia + systemic / pathology microscopic / stomach / inflammation
rat [3] = settings: Carcinogenicity, fischer, Oral, Gavage/Intubation, dose end: 103 week, group: systemic
rat [4] = settings: Subchronic oral toxicity in rodents, fischer, Gavage/Intubation, dose end: 13 week, group: systemic
rat [5] = settings: Prenatal developmental toxicity study, sprague dawley, Oral, Gavage/Intubation, dose end: 20 GD
rat [6] = settings: Sub-acute repeat dose toxicity, fischer, Oral, Gavage/Intubation, dose end: 14 day, group: systemic
rat [7] = settings: Combined chronic toxicity/carcinogenicity, fischer, Oral, Feed, dose end: 2 year, group: systemic
mouse [8] = settings: Multigenerational reproductive toxicity study, Other, Oral, Feed, dose end: 90 day
mouse [9] = settings: Subchronic oral toxicity in rodents, BALB/c, Water, dose end: 141 day, group: systemic, systemic / pathology microscopic / liver / hemangioma + systemic / pathology microscopic / liver / hemangiosarcoma + systemic / pathology …
mouse [10] = settings: Reproduction/developmental toxicity screening test, other, Injection, Subcutaneous, dose end: 1 PND
mouse [11] = settings: Carcinogenicity; other; Oral; Water; dose end: 18 week; group: systemic; systemic / pathology microscopic / lung / mixed tumor nos
[12] = systemic / pathology microscopic / liver / fibrosis + systemic / pathology microscopic / liver / hyperplasia + systemic / pathology …
[13] = systemic / pathology microscopic / liver / pigmentation
[14] = systemic / pathology microscopic / liver / basophilic focus + systemic / pathology microscopic / liver / hypertrophy + systemic / pathology …
[15] = group: developmental, developmental / developmental malformation / bone / ossification sites + systemic / in life observation / body weight / fetal weight
[16] = group: maternal, systemic / in life observation / body weight / body weight gain + systemic / in life observation / food consumption / food consumption + …
[17] = systemic / pathology gross / intestine large / enlarged + systemic / pathology gross / liver / mottling
[18] = systemic / pathology microscopic / kidney / nephropathy + systemic / pathology microscopic / liver / cytomegaly + systemic / pathology …
[19] = systemic / pathology microscopic / liver / cytomegaly + systemic / in life observation / food consumption / food consumption
[20] = group: parental, systemic / in life observation / mortality / mortality
[21] = group: reproductive, reproductive / reproductive performance / fertility / fertility + reproductive / reproductive performance / mating / mating + reproductive…
[22] = group: developmental, developmental / offspring survival late / [other] / [other]
[23] = group: maternal, reproductive / offspring survival early / dead fetuses / dead fetuses
[24] = group: offspring, systemic / pathology microscopic / liver / [other] + systemic / pathology gross / full gross necropsy / hemangiosarcoma
[25] = group: offspring, systemic / pathology microscopic / liver / [other] + systemic / pathology microscopic / liver / hemangioma + systemic / pathology …

For `C=CCOC(=O)c1ccccc1C(=O)OCC=C` [Diallyl phthalate], the LEL (mouse [1]) was 400 mg/kg/day, the LOAEL (mouse [1]) was over 600 mg/kg/day and the NEL (mouse [1]) was 200 mg/kg/day. The NOAEL (mouse [1]) was at least 600 mg/kg/day, the LEL (mouse [2]) was 150 mg/kg/day and the LOAEL (mouse [2]) was 150 mg/kg/day. It also gave an NEL (mouse [2]) of under 150 mg/kg/day, an NOAEL (mouse [2]) of under 150 mg/kg/day and an LOAEL (rat [3]; [12]) of 100 mg/kg/day. It also gave an NOAEL (rat [3]; [12]) of 50 mg/kg/day, an LEL (rat [3]; [13]) of 50 mg/kg/day and an NEL (rat [3]; [13]) of under 50 mg/kg/day. For the same molecule, the NOAEL (rat [4]; systemic / in life observation / clinical signs / defecation (diarrhea) + systemic / in life observation / clinical signs / emaciation + …) was 100 mg/kg/day, the LEL (rat [4]; [14]) was 50 mg/kg/day and the LOAEL (rat [4]; [14]) was 200 mg/kg/day. The NEL (rat [4]; [14]) was 25 mg/kg/day, the LOAEL (rat [5]; [15]) was over 250 mg/kg/day and the NEL (rat [5]; [15]) was 150 mg/kg/day. The NOAEL (rat [5]; [15]) was at least 250 mg/kg/day, the LEL (rat [5]; group: developmental, systemic / in life observation / body weight / fetal weight) was 200 mg/kg/day and the LOAEL (rat [5]; [16]) was over 250 mg/kg/day. The NEL (rat [5]; [16]) was 100 mg/kg/day, the NOAEL (rat [5]; [16]) was at least 250 mg/kg/day and the LEL (rat [5]; group: maternal, systemic / pathology gross / liver / discolored + systemic / pathology gross / liver / mottling) was 150 mg/kg/day. For the same molecule, the LEL (rat [6]; [17]) was 50 mg/kg/day, the NEL (rat [6]; [17]) was under 50 mg/kg/day and the NOAEL (rat [6]; systemic / pathology gross / liver / discolored + systemic / pathology gross / liver / enlarged + systemic / pathology gross / liver / …) was 100 mg/kg/day. For the same molecule, the LOAEL (rat [6]; systemic / pathology gross / liver / mottling + systemic / pathology gross / liver / discolored + systemic / pathology gross / liver / …) was 200 mg/kg/day.
In the case of `ClC1(Cl)C2(Cl)C3(Cl)C4(Cl)C(Cl)(Cl)C5(Cl)C3(Cl)C1(Cl)C5(Cl)C24Cl` (stereo not given) [Mirex], the LOAEL (rat [7]; [18]) is reported as 1.95 mg/kg/day, the NOAEL (rat [7]; [18]) is reported as 0.75 mg/kg/day and the LEL (rat [7]; [19]) is reported as 0.007 mg/kg/day. For the same molecule, the NEL (rat [7]; [19]) was under 0.007 mg/kg/day, the LEL (mouse [8]; [20]) was 0.25 mg/kg/day and the LOAEL (mouse [8]; [20]) was over 0.25 mg/kg/day. For the same molecule, the NEL (mouse [8]; [20]) was under 0.25 mg/kg/day, the NOAEL (mouse [8]; [20]) was at least 0.25 mg/kg/day and the LEL (mouse [8]; [21]) was 0.25 mg/kg/day. The LOAEL (mouse [8]; [21]) was over 0.25 mg/kg/day, the NEL (mouse [8]; [21]) was under 0.25 mg/kg/day and the NOAEL (mouse [8]; [21]) was at least 0.25 mg/kg/day.
In the case of `CN(C)N=O` [N-Nitrosodimethylamine], the LEL (mouse [9]) is reported as 1.33 mg/kg/day, the LOAEL (mouse [9]) is reported as over 1.33 mg/kg/day and the NEL (mouse [9]) is reported as under 1.33 mg/kg/day. It also gave an NOAEL (mouse [9]) of at least 1.33 mg/kg/day, an LEL (mouse [10]; [22]) of 1 mg/kg/day and an LOAEL (mouse [10]; [22]) of over 50 mg/kg/day. The NEL (mouse [10]; [22]) was under 1 mg/kg/day, the NOAEL (mouse [10]; [22]) was at least 50 mg/kg/day and the LEL (mouse [10]; [23]) was 20 mg/kg/day. It also gave an LOAEL (mouse [10]; [23]) of over 50 mg/kg/day, an NEL (mouse [10]; [23]) of 10 mg/kg/day and an NOAEL (mouse [10]; [23]) of at least 50 mg/kg/day. The LEL (mouse [10]; [24]) was 1 mg/kg/day, the NEL (mouse [10]; [24]) was under 1 mg/kg/day and the LOAEL (mouse [10]; [25]) was over 50 mg/kg/day. The NOAEL (mouse [10]; [25]) was at least 50 mg/kg/day, the LEL (mouse [11]) was 0.0667 mg/kg/day and the LOAEL (mouse [11]) was over 0.0667 mg/kg/day. It also gave an NEL (mouse [11]) of under 0.0667 mg/kg/day and an NOAEL (mouse [11]) of at least 0.0667 mg/kg/day.
